ChEMBL document CHEMBL3745593, “Medicinal Chemistry Approaches to Heart Regeneration” (J Med Chem, 2015)
pIC50: −log10 of the molar value.

Tests used:
Danio rerio = assay: Inhibition of BMPR in zebra fish embryo assessed as dorsalization administered 3 hr post fertilization
[1] = Induction of cardiogenesis in human embryonic stem cells assessed as as enrichment of pacemaker like cardiomyocytes (reference value: 21%); assay type: functional, Embryonic stem cell
[2] = Induction of cardiogenesis in human embryonic stem cells by DAPI staining based immunofluorescence method relative to control; assay type: functional, Embryonic stem cell
[3] = Induction of cardiogenesis in mouse CGR8 cells assessed as cardiac troponin positive cells measured on day 5 +10+2 EB-derived cells by flow cytometry analysis (reference value: 11%); assay type: functional
[4] = Suppression of cardiogenesis in mouse embryonic stem cells assessed as ventricular like cardiomyocytes by patch clamp technique (reference value: 86%); assay type: functional, Embryonic stem cell
[5] = Induction of cardiogenesis in mouse embryonic stem cells assessed as enrichment of atrial like cardiomyocytes by patch clamp technique (reference value: 7%); assay type: functional, Embryonic stem cell
[6] = Induction of cardiogenesis in mouse embryonic stem cells assessed as enrichment of pacemaker like cardiomyocytes by patch clamp technique (reference value: 7%); assay type: functional, Embryonic stem cell
Activin receptor type-1 = target: T1, Activin receptor type-1 (Homo sapiens, UniProt Q04771); assay: Inhibition of human ALK2 in presence of (33P)gamma ATP
T1 sequence (Q04771 whole entry): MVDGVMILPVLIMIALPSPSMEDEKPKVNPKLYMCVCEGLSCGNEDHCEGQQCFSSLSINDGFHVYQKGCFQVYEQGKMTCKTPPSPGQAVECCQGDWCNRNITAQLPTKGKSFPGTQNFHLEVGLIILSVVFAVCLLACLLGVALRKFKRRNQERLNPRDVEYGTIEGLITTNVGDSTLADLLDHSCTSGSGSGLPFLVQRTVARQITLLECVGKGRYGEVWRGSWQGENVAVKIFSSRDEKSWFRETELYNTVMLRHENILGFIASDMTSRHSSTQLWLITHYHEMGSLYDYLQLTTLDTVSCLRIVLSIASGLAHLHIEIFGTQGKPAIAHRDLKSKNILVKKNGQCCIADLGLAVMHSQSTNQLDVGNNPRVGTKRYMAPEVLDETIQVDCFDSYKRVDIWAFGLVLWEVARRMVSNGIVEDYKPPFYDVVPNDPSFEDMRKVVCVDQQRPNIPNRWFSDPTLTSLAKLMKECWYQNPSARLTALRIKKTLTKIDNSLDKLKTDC

TGF-beta receptor type-1 = target: T2, TGF-beta receptor type-1 (Homo sapiens, UniProt P36897); assay: Inhibition of human ALK5 in presence of (33P)gamma ATP
T2 sequence (P36897 whole entry): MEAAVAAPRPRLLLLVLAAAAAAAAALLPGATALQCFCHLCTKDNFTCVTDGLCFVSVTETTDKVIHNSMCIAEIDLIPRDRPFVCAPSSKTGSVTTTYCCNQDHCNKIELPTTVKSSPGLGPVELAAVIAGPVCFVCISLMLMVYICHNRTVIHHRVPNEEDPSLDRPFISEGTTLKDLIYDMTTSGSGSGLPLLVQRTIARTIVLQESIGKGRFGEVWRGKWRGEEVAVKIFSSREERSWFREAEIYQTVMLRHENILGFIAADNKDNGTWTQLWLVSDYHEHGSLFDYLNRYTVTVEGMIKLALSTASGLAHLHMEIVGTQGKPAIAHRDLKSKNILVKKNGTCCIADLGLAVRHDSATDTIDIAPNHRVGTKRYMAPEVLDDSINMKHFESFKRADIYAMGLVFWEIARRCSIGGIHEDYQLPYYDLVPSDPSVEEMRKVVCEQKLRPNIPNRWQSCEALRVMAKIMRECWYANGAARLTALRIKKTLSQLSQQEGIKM

[7] = target: Vascular endothelial growth factor receptor 2 (Homo sapiens, UniProt P35968); assay: Inhibition of human KDR in presence of (33P)gamma ATP
Vascular endothelial growth factor receptor 2, sequence (P35968 whole entry): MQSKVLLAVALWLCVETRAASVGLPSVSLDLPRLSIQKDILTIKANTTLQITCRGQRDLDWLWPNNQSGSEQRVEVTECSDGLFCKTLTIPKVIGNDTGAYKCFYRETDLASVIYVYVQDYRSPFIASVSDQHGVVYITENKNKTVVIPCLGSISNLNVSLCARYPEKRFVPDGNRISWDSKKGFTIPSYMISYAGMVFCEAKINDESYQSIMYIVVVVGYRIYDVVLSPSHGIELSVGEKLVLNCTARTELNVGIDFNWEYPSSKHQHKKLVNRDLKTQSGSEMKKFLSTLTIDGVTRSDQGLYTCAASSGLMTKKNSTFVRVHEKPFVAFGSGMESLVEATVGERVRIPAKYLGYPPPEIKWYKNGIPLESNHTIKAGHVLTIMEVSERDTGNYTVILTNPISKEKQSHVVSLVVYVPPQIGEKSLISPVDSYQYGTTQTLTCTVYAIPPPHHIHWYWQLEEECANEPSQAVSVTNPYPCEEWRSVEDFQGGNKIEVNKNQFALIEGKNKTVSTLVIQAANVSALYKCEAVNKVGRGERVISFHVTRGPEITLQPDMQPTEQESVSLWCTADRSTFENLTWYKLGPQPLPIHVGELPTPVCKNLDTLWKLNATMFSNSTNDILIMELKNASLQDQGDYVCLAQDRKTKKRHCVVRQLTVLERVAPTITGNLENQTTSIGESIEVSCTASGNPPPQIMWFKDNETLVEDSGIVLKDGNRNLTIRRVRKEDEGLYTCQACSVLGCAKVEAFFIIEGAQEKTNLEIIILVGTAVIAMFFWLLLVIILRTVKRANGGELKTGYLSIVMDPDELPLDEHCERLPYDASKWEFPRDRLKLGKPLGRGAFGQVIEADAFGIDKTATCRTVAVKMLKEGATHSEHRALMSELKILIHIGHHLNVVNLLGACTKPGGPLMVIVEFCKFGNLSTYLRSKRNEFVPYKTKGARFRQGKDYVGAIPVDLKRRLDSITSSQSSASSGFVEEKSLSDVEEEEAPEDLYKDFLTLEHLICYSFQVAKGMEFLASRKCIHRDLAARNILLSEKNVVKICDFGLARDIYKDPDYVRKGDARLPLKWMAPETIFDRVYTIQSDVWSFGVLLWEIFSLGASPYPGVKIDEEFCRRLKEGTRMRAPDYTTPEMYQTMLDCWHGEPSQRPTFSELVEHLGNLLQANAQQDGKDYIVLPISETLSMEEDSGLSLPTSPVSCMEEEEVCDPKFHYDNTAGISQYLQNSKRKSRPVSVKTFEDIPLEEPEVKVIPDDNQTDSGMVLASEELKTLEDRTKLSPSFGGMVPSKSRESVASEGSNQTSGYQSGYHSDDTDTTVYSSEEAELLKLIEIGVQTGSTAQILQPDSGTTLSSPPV

`c1ccc2c(-c3cnn4cc(-c5ccc(N6CCNCC6)cc5)cnc34)ccnc2c1` showed an EC100 (Danio rerio) of 3 µM.

For `COc1cc2ncnc(Nc3cccc(Cl)c3)c2cc1OC` [TYRPHOSTIN AG-1478], the Activity [1] was 52%.

For `C[S+]([O-])c1ccc(-c2nc(-c3ccc(F)cc3)c(-c3ccncc3)[nH]2)cc1` (configuration not stated) [SB-203580], the “fold change (FC)” value [2] was 2.5.

`CCn1c(=O)[nH]c2ccccc21` gave an Activity [3] of 59%, an Activity [4] of 21% and an Activity [5] of 21%. It also gave an Activity [6] of 58%.

Compound `CC(C)Oc1ccc(-c2cnc3c(-c4ccnc5ccccc45)cnn3c2)cc1` has an EC100 (Danio rerio) of 0.2 µM and a pIC50 (Activin receptor type-1) of 7.00.

With `c1cc(-c2cnn3cc(-c4ccc(OCCN5CCCCC5)cc4)cnc23)ccn1` [DORSOMORPHIN] the pIC50 (TGF-beta receptor type-1) was 5.00, the EC100 (Danio rerio) was 2.5 µM and the pIC50 [7] was 6.66.
